The target in this experiment is T1, Tyrosine-protein kinase JAK3 [781-1124] (Homo sapiens, UniProt P52333).
T1 construct: 781-1124
Put plainly: Phosphorylation Assay. The settings on record: pH 7.5. The protocol: Phosphorylation of the appropriate peptide substrate (fluorescently labeled Srctide) by recombinant JAK3 (catalytic domain, aa 781-1124) was measured in the presence and absence of different concentrations of test compounds. Test compound, enzyme, fluorescently labeled substrate, and cofactors (ATP and Mg2+) were combined in a well of a microtiter plate and incubated for 2 hours at 25° C. The composition of the reaction buffer was 100 mM HEPES pH 7.5, 5 mM MgCl2, 0.01% Triton-X 100, 0.1% Bovine Serum Albumin, and 1% DMSO. Enzyme concentration in the final reaction mixture was 0.5 nM while peptide substrate was at 1 uM. ATP was used at 1xKm concentration corresponding to 2 uM. Serial dilutions (3-fold steps) of compounds were prepared in DMSO. At the end of the incubation, the reaction was stopped by the addition of 20 mM EDTA. Substrate and product (i.e. phosphorylated substrate) were separated electrophoretically and both were quantified by fluorescence intensity.

Two compounds from BindingDB's records for patent US9187487 (Principia Biopharma, 2015) can be followed below.

The IC50 is the concentration at which inhibition is half-maximal. A low value points to higher potency.

T1 sequence (P52333 781-1124): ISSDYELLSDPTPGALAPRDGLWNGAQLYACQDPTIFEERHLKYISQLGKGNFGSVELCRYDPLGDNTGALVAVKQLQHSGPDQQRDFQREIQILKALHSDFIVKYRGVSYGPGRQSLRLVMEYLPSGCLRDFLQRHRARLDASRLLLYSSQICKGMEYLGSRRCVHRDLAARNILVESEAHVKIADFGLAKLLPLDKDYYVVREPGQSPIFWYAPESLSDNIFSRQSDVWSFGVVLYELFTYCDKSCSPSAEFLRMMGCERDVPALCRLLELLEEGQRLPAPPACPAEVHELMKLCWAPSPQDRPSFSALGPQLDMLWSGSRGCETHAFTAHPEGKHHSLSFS

For the compound `CC(C)C(=O)c1c[nH]c2ncc(-c3cccc(C=C(C#N)C(=O)N(C)C)c3)nc12` [US9187487, 37], 0.19 µM corresponded to half-maximal inhibition (IC50).

In the case of `CC(C)(C)C(=O)c1c[nH]c2ncc(Nc3ccc(C=C4SC(=O)NC4=O)cc3)nc12` [US9187487, 65], half-maximal inhibition (IC50) was put at 0.004 µM.
